Data: patent publication US20110015226A1, “Treatment of Energy Utilization Disease” (SUMMIT CORPORATION PLC, priority 2008, published 2011)
Where two headings read alike, the source gives them in different places.

Experiments:
Format in all cases: biochemical
[1] = molecular target: rabbit intestinal maltase; assay: Rabbit disaccharidase inhibition assay: maltase; conditions: NI: no inhibition at 0.8 mM
Method: (§1) Sucrose (8.3 mM), maltose (5 mM) and isomaltose (6.3 mM) substrates were made using 0.2 M Macllvaine (citrate-phosphate) buffer, pH 6.0. The glucose detection reagent was prepared according to the supplier's instructions (Megazyme Ltd). Linearity of the timecourse of the reaction between the glucose detection reagent and glucose was tested using a series of glucose dilutions.
(§2) The method for preparation of mammalian small intestine mucosal disaccharidases was based on Griffiths (1998), omitting ammonium sulphate fractionation steps. The small intestine was dissected out of a female wild rabbit, and opened longitudinally using a scalpel. The mucosal layer was scraped off using the edge of a clean microscope slide, and placed into 3 ml of dH2O. The mucosal layer suspension was centrifuged at around 1000 rpm for 30 seconds to sediment tissue debris. The supernatant ([…]) was removed, and centrifuged again at 3500 rcf for 1 minute to remove fine particulates from suspension. The supernatant was diluted to give 0.2-0.25 mg/ml protein and stored at −30° C.
(§3) Enzyme assays were carried out using 5-15 μl of enzyme preparation, 5 μl of test compound (or dH2O for controls) and 15-25 μl of substrate solution. Reactions were covered using a sheet of plate sealing film, and incubated at 37° C. for 60 minutes. Glucose (from disaccharide hydrolysis) was quantified by adding 200 μl of glucose detection reagent and incubating the reactions for a further twenty-five minutes. Absorbance was measured at 510 nm against control blanks.

[2] = molecular target: T1, rabbit intestinal sucrase (Oryctolagus cuniculus, UniProt P07768); assay: Rabbit disaccharidase inhibition assay: sucrase; conditions: NI: no inhibition at 0.8 mM
T1 construct: The small intestine was dissected out of a female wild rabbit; from tissue; host or cells: small-intestinal mucosa of a female wild rabbit
Method: as §1, §2, §3

[3] = molecular target: T2, rabbit intestinal isomaltase (Oryctolagus cuniculus, UniProt P07768); assay: Rabbit disaccharidase inhibition assay: isomaltase; conditions: NI: no inhibition at 0.8 mM
T2 construct: The small intestine was dissected out of a female wild rabbit; from tissue; host or cells: small-intestinal mucosa of a female wild rabbit
Method: as §1, §2, §3

[4] = tested on: Naringinase Penicillium decumbens; assay: Glycosidase inhibition: Naringinase Penicillium decumbens; conditions: compounds tested at 0.8 mM
From the text: (§4) The results tabulated below were obtained using commercially available glycosidases and p-nitrophenyl-substrates using standard methods described for example by Watson et al (1997) Phytochemistry 46 255-259. All enzymes and substrates were bought from Sigma. Enzyme and substrate solutions were made using sodium phosphate buffers at the pH optima values. The enzymes used were α-D-glucosidase Saccharomyces cerevisiae, Bacillus stearothermophilus, Oryzae sativa), β-D-glucosidase (Almond), α-D-mannosidase (Jack bean), α-D-galactosidase (Green coffee beans), β-D-galactosidase (Bovine liver), α-L-fucosidase (Bovine kidney), N-acetyl-β-D-glucosaminidase (Bovine kidney, Jack bean, Aspergillus oryzae), Naringinase (Penicillium decumbens) and amyloglucosidase (Aspergillus niger). All enzymes were used with the appropriate p-nitrophenyl substrates (5 mM). Amyloglucosidase activity was measured using amylopectin (0.1%) (Merck) mixed with sodium phosphate buffer, pH 4.5 in a glass bottle, and healed in a boiling water bath for 20 minutes to dissolve with released glucose measured using ‘Trinder’ glucose detection solution (Sigma).
(§5) All enzymes and para-nitrophenyl substrates were purchased from Sigma, with the exception of beta-mannosidase which came from Megazyme. Enzymes were assayed at 27° C. in 0.1M citric acid/0.2M disodium hydrogen phosphate buffers at the optimum pH for the enzyme. The incubation mixture consisted of 10 μl enzyme solution, 10 μl of 1 mg/ml aqueous solution of extract and 50 μl of the appropriate 5 mM para-nitrophenyl substrate made up in buffer at the optimum pH for the enzyme. The reactions were stopped by addition of 70 μl 0.4M glycine (pH 10.4) during the exponential phase of the reaction, which had been determined at the beginning using uninhibited assays in which water replaced inhibitor. Final absorbances were read at 405 nm using a Versamax microplate reader (Molecular Devices). Assays were carried out in triplicate, and the values given are means of the three replicates per assay. […]

[5] = tested on: β-D-galactosidase Bovine liver; assay: Glycosidase inhibition: β-D-galactosidase Bovine liver; conditions: compounds tested at 0.8 mM
From the text: as §4
(§6) All enzymes and para-nitrophenyl substrates were purchased from Sigma, with the exception of beta-mannosidase which came from Megazyme. Enzymes were assayed at 27° C. in 0.1M citric acid/0.2M disodium hydrogen phosphate buffers at the optimum pH for the enzyme. The incubation mixture consisted of 10 μl enzyme solution, 10 μl of 1 mg/ml aqueous solution of extract and 50 μl of the appropriate 5 mM para-nitrophenyl substrate made up in buffer at the optimum pH for the enzyme. The reactions were stopped by addition of 70 μl 0.4M glycine (pH 10.4) during the exponential phase of the reaction, which had been determined at the beginning using uninhibited assays in which water replaced inhibitor. Final absorbances were read at 405 nm using a Versamax microplate reader (Molecular Devices). Assays were carried out in triplicate, and the values given are means of the three replicates per assay. (See Watson, A. A., Nash, R. J., Wormald, M. R., Harvey, D. J., Dealler, S., Lees, E., Asano, N., Kizu, H., Kato, A., Griffiths, R. C., Cairns, A. J. and Fleet, G. W. J. (1997). Glycosidase-inhibiting pyrrolidine alkaloids from Hyacinthoides non-scripta. Phytochemistry 46 (2): 255-259.)

[6] = molecular target: T3, Amyloglucosidase Aspergillus niger (Aspergillus niger, UniProt P69328); assay: Glycosidase inhibition: Amyloglucosidase Aspergillus niger; conditions: compounds tested at 0.8 mM
T3 construct: purchased Sigma
From the text: as §4, §6

[7] = molecular target: α-D-glucosidase (Bacillus) (Geobacillus stearothermophilus, UniProt A0ACH1E9U3); assay: Glycosidase inhibition: α-D-glucosidase (Bacillus); conditions: compounds tested at 0.8 mM
From the text: as §4, §6

[8] = molecular target: T4, N-acetyl-β-D-glucosaminidase (A. oryzae) (Aspergillus oryzae, UniProt Q8J2T0); assay: Glycosidase inhibition: N-acetyl-β-D-glucosaminidase (A. oryzae); conditions: compounds tested at 0.8 mM
T4 construct: purchased Sigma
From the text: as §4, §6

[9] = molecular target: T5, α-D-galactosidase Green coffee bean (Coffea arabica, UniProt Q42656); assay: Glycosidase inhibition: α-D-galactosidase Green coffee bean; conditions: compounds tested at 0.8 mM
T5 construct: α-D-galactosidase (Green coffee beans); purchased Sigma; host or cells: green coffee beans
From the text: as §4, §6

[10] = molecular target: T6, β-Glucuronidase Bovine liver (Bos taurus, UniProt A3KMY8); assay: Glycosidase inhibition: β-Glucuronidase Bovine liver;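 also: bovine liver β-glucuronidase acting on p-nitrophenyl β-D-glucuronide substrate in citric acid/disodium hydrogen phosphate buffer, pH 5.0, 27 °C, mean of triplicate runs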
T6 construct: The assay involved the use of Bovine liver β-glucuronidase; purchased Sigma; host or cells: bovine liver
T6 sequence (A3KMY8 1-652): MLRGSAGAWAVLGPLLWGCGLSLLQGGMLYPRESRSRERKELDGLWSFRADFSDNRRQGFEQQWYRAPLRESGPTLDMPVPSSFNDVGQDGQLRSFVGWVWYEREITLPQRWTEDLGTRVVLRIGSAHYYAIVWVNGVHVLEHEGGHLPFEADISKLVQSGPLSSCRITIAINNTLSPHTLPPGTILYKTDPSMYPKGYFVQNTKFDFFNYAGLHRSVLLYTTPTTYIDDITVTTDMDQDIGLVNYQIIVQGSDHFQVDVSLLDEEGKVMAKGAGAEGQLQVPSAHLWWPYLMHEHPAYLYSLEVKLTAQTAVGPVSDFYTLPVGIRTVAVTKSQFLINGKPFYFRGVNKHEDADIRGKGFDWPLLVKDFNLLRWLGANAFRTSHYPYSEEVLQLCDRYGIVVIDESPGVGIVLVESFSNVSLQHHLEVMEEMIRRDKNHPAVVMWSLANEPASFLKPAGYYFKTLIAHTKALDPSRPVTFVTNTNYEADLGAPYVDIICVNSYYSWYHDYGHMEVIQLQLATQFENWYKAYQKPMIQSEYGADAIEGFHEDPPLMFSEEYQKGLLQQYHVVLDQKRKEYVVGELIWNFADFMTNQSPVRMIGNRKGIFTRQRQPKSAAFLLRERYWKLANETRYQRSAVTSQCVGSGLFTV

[11] = tested on: β-D-mannosidase Cellullomonas fimi; assay: Glycosidase inhibition: β-D-mannosidase Cellullomonas fimi; conditions: compounds tested at 0.8 mM
Method: as §6

[12] = tested on: N-acetyl-β-D-glucosaminidase (Jack bean); assay: Glycosidase inhibition: N-acetyl-β-D-glucosaminidase (Jack bean); conditions: compounds tested at 0.8 mM
From the text: as §4, §5

[13] = tested on: N-acetyl-β-D-glucosaminidase (Bovine kidney); assay: Glycosidase inhibition: N-acetyl-β-D-glucosaminidase (Bovine kidney); conditions: for % inhibition, N-acetyl-β-D-glucosaminidase (Bovine kidney): compounds tested at 0.8 mM;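 as to all read-outs here: enzyme activity followed by cleavage of the matching p-nitrophenyl glycoside (5 mM) in phosphate buffer set to the enzyme's optimal pH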
α-D-glucosidase (Yeast) = molecular target: T7, α-D-glucosidase (Yeast) (Saccharomyces cerevisiae, UniProt P53341); assay: Glycosidase inhibition: α-D-glucosidase (Yeast); conditions: compounds tested at 0.8 mM
T7 construct: purchased Sigma
From the text: as §4, §6

α-D-glucosidase (Rice) = molecular target: T8, α-D-glucosidase (Rice) (Oryza sativa subsp. japonica, UniProt Q653V7); assay: Glycosidase inhibition: α-D-glucosidase (Rice); conditions: for inhibition at 800 µM: compounds tested at 0.8 mM; for IC50: read-out: IC50, α-D-glucosidase (Rice)
T8 construct: purchased Sigma

β-D-glucosidase (Almond) = assay: Glycosidase inhibition: β-D-glucosidase (Almond); conditions: compounds tested at 0.8 mM
From the text: as §4, §5

[14] = molecular target: T9, α-L-fucosidase Bovine kidney (Bos taurus, UniProt Q2KIM0); assay: Glycosidase inhibition: α-L-fucosidase Bovine kidney; conditions: compounds tested at 0.8 mM
T9 construct: α-L-fucosidase (Bovine kidney); purchased Sigma; host or cells: bovine kidney
T9 sequence (Q2KIM0 23-468): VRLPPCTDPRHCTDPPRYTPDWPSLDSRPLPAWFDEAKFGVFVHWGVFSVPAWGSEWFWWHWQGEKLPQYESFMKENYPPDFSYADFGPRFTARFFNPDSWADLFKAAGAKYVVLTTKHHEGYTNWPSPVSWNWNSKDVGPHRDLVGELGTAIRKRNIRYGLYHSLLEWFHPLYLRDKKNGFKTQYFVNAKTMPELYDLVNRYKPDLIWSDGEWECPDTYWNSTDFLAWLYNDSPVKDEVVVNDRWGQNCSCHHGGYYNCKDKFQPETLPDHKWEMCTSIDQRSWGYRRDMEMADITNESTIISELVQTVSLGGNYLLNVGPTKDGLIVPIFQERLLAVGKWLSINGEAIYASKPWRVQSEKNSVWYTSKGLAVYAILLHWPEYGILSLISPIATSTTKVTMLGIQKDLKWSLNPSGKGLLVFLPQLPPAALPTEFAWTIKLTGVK

[15] = molecular target: T10, α-D-mannosidase Jack bean (Canavalia ensiformis, UniProt C0HJB3); assay: Glycosidase inhibition: α-D-mannosidase Jack bean; conditions: compounds tested at 0.8 mM
T10 construct: α-D-mannosidase (Jack bean); purchased Sigma
T10 sequence (C0HJB3 1-981): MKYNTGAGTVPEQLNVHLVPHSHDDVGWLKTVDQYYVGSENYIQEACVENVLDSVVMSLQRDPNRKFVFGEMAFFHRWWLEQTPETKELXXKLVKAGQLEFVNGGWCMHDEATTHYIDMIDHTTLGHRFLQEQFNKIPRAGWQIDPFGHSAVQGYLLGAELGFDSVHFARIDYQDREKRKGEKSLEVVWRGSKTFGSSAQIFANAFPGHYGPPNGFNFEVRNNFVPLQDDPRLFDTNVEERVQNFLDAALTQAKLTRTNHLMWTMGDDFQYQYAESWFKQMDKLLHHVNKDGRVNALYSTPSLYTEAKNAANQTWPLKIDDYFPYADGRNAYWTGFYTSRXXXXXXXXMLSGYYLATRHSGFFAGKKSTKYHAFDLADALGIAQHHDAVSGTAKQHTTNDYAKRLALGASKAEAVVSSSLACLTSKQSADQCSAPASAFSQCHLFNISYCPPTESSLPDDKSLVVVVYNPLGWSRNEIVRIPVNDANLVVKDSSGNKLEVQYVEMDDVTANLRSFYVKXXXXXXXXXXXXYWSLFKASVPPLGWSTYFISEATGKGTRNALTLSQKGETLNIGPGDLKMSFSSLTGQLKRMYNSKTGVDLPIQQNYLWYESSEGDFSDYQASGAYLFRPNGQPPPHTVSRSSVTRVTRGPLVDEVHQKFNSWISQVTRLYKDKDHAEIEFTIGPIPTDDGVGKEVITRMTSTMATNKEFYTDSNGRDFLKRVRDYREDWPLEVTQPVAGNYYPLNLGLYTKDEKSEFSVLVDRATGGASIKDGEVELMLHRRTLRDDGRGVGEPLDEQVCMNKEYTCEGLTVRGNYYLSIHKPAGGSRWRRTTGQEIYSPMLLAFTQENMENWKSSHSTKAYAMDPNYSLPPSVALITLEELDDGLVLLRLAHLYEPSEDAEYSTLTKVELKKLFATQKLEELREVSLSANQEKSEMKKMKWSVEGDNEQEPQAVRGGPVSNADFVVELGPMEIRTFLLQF

T7 sequence (P53341 whole entry): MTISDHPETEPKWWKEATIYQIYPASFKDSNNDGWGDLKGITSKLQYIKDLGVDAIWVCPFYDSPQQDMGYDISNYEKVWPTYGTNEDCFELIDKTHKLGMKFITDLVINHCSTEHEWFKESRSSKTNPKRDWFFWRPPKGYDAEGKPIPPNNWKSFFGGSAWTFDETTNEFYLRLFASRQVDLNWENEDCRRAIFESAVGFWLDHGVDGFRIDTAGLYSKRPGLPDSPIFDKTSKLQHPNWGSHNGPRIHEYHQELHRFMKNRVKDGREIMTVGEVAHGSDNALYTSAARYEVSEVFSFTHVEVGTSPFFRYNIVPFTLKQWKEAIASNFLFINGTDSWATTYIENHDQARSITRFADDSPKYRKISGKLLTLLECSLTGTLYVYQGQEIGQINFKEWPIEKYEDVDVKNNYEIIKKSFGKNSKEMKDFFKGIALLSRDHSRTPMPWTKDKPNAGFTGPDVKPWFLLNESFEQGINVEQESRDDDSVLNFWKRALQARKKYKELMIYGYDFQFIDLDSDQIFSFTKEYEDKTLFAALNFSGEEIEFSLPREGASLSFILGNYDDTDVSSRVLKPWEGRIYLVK
T3 sequence (P69328 25-640): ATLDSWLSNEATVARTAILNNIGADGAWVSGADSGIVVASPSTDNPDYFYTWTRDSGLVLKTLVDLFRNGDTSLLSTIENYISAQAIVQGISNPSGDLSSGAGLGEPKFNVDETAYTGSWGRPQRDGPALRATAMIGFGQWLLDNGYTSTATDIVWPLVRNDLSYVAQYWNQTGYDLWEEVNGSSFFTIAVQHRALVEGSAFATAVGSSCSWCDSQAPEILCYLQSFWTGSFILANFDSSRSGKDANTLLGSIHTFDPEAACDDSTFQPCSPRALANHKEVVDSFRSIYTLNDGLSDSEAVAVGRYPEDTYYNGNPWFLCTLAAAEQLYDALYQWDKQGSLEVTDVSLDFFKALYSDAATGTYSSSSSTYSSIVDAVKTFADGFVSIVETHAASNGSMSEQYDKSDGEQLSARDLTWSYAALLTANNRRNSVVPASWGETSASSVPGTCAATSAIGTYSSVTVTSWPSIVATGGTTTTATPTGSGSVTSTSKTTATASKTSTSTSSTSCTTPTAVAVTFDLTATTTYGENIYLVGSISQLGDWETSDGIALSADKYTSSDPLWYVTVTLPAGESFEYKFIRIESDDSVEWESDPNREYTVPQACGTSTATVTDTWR
T8 sequence (Q653V7 34-885): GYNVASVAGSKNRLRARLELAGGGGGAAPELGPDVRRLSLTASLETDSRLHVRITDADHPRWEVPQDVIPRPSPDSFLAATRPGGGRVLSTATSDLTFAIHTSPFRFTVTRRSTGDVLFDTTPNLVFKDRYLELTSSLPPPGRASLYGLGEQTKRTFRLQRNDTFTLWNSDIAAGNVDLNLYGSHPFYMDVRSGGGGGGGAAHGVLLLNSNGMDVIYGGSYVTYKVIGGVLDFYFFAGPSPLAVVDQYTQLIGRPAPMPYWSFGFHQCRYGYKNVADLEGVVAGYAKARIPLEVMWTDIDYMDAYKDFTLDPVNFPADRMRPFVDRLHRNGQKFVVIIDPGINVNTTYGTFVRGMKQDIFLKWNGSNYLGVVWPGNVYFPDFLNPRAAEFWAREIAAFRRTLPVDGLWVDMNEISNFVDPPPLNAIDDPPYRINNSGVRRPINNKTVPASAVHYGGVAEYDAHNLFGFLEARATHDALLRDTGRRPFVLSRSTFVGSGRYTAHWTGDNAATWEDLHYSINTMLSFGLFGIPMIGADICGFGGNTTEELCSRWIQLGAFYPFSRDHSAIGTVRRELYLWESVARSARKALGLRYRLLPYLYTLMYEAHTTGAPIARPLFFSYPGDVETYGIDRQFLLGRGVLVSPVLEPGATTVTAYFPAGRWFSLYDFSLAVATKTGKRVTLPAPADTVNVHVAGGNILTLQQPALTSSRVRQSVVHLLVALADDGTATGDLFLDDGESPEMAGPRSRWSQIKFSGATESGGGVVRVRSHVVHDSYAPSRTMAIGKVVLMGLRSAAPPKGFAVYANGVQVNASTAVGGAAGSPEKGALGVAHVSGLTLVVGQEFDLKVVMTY
Chain of α-D-glucosidase (Bacillus) (A0ACH1E9U3 entry or part of it): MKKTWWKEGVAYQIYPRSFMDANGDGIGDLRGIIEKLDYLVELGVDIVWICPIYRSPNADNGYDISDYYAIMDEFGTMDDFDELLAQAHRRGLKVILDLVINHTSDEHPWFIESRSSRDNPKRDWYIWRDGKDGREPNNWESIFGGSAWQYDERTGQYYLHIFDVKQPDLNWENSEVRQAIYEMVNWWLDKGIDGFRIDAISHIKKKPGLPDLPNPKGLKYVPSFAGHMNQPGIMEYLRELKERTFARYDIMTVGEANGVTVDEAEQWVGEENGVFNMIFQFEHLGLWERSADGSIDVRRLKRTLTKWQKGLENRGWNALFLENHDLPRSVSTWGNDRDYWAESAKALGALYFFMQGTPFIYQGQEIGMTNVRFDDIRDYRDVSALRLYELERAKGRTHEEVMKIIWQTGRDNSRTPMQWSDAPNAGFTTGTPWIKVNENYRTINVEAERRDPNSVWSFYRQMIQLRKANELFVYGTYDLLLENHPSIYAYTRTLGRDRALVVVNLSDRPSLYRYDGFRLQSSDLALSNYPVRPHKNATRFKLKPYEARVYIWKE
T5 sequence (Q42656 16-378): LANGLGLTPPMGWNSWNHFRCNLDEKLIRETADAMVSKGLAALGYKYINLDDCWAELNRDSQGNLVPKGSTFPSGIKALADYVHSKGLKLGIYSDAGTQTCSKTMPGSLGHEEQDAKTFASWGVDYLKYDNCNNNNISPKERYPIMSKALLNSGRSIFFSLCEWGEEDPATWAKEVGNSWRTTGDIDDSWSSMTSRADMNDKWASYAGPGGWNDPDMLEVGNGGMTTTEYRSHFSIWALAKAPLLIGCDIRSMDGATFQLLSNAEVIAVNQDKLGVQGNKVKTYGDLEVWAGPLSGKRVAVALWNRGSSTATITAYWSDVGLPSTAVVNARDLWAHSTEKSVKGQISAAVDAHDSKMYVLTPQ
T4 sequence (Q8J2T0 97-600): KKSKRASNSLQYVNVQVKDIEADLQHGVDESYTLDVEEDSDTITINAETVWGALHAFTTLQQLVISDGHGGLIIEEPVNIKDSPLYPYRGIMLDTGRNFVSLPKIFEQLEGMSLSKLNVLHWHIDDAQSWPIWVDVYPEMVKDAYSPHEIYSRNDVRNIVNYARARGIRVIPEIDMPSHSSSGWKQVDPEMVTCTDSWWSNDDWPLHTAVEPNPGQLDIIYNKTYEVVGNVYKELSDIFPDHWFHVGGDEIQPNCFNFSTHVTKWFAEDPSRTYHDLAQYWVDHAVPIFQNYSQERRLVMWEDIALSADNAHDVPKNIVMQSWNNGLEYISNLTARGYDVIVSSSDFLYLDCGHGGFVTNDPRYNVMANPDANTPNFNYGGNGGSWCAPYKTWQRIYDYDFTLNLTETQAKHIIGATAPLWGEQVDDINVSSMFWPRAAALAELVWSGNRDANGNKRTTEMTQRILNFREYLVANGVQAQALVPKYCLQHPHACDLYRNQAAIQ

Compound	inhibition at 800 µM [6] [%]	inhibition at 800 µM [7] [%]	inhibition at 800 µM [8] [%]	inhibition at 800 µM [9] [%]	% inhibition, N-acetyl-β-D-glucosaminidase (Bovine kidney) [13]	inhibition at 800 µM (α-D-glucosidase (Yeast)) [%]	inhibition at 800 µM (α-D-glucosidase (Rice)) [%]	inhibition at 800 µM [14] [%]	IC50 (α-D-glucosidase (Rice)) [µM]	inhibition at 800 µM [15] [%]	other results
CCCCN1C[C@H](O)[C@@H](O)[C@H](O)[C@H]1CO [Zavesca, N-butyl-DNJ, reference compound]	–	–	–	–	–	–	–	–	–	–	IC50 [1]: 970 nM; IC50 [2]: 220 nM; IC50 [3]: 190 nM
OCCN1C[C@H](O)[C@@H](O)[C@H](O)[C@H]1CO [Miglitol, reference compound]	78	83	< 5	19	NI (NI = no inhibition)	< 5	100	–	–	–	% inhibition, Naringinase Penicillium decumbens [4]: 26%; % inhibition, β-D-galactosidase Bovine liver [5]: 87%; inhibition at 800 µM ([10]; compounds tested at 0.8 mM): < 5%; % inhibition, β-D-mannosidase Cellullomonas fimi [11]: NI (NI = no inhibition); % inhibition, N-acetyl-β-D-glucosaminidase (Jack bean) [12]: NI (NI = no inhibition); % inhibition, β-D-glucosidase (Almond) (β-D-glucosidase (Almond)): 99%
O=C(O)[C@@H]1[C@@H](O)[C@H](O)[C@@H](O)CN1CCO [Compound T3, (2S,3R,4R,5S)-3,4,5-Trihydroxy-1-(2-hydroxyethyl)piperidine-2-carboxylic acid]	< 50	< 50	< 50	< 50	82.0%	< 50	67.2	< 50	259	< 50	IC50 ([10]; read-out: IC50 against mammalian glucuronidase): 60 µM; IC50 ([13]; read-out: IC50 against mammalian 6-N-acetylglucosaminidase (hexosaminidase)): 12.2 µM
O=C(O)CN1C[C@H](O)[C@@H](O)[C@H](O)[C@H]1CO [Compound G6, 2-((2R,3R,4R,6S)-3,4,5-Trihydroxy-2-(hydroxymethyl)piperidin-1-yl)acetic acid]	< 50	< 50	< 50	< 50	83.6%	< 50	99.7	< 50	1	< 50	IC50 ([10]; pH 5.0, 27° C., p-nitrophenyl β-D-glucuronide, read-out: IC50, β-Glucuronidase Bovine liver): 80 µM; IC50 ([13]; read-out: IC50, N-acetyl-β-D-glucosaminidase (Bovine kidney)): 10.4 µM
